Values after ≈ are worked out from the molar mass of the structure shown.
What was measured:
Format in all cases: functional
Pseudomonas aeruginosa [1] = experiment: Antipseudomonal activity against Pseudomonas aeruginosa PAO581 in Pseudomonas isolation agar assessed as bacterial growth inhibition at 10 uM by disk diffusion assay; settings: read-out: DIZ
Pseudomonas aeruginosa [2] = experiment: Antipseudomonal activity against Pseudomonas aeruginosa PAO1 in Pseudomonas isolation agar assessed as bacterial growth inhibition at 10 uM by disk diffusion assay; settings: read-out: DIZ
Pseudomonas aeruginosa [3] = experiment: Antipseudomonal activity against Pseudomonas aeruginosa PAO581 in Luria-Bertani agar assessed as bacterial growth inhibition at 10 uM by disk diffusion assay; settings: read-out: DIZ
Pseudomonas aeruginosa [4] = experiment: Antipseudomonal activity against Pseudomonas aeruginosa PAO1 in Luria-Bertani agar assessed as bacterial growth inhibition at 10 uM by disk diffusion assay; settings: read-out: DIZ
Pseudomonas aeruginosa [5] = experiment: Antipseudomonal activity against Pseudomonas aeruginosa PAO581 in Luria-Bertani broth by microdilution method
Pseudomonas aeruginosa [6] = experiment: Bactericidal activity against Pseudomonas aeruginosa PAO581 in Luria-Bertani broth by microdilution method
Pseudomonas aeruginosa [7] = experiment: Antipseudomonal activity against Pseudomonas aeruginosa PAO1 in Pseudomonas isolation agar assessed as reduction in inhibitory zone size at 10 uM by disk diffusion assay relative to Luria-Bertani agar; parameters: scale not given: the % may be the effect or the level left
Pseudomonas aeruginosa [8] = experiment: Bactericidal activity against Pseudomonas aeruginosa PAO1 in Luria-Bertani broth by microdilution method
Pseudomonas aeruginosa [9] = experiment: Antipseudomonal activity against Pseudomonas aeruginosa PAO581 in Pseudomonas isolation agar assessed as reduction in inhibitory zone size at 10 uM by disk diffusion assay relative to Luria-Bertani agar; parameters: scale not given: the % may be the effect or the level left
Pseudomonas aeruginosa [10] = experiment: Antipseudomonal activity against Pseudomonas aeruginosa PAO1 in Luria-Bertani broth by microdilution method

Row | Structure (SMILES) | zone of inhibition at 10 µM (Pseudomonas aeruginosa [1]) | zone of inhibition at 10 µM (Pseudomonas aeruginosa [2]) | zone of inhibition at 10 µM (Pseudomonas aeruginosa [3]) | zone of inhibition at 10 µM (Pseudomonas aeruginosa [4]) | MIC (Pseudomonas aeruginosa [5]) | MBC (Pseudomonas aeruginosa [6]) | Activity (Pseudomonas aeruginosa [7]) | MBC (Pseudomonas aeruginosa [8]) | Activity (Pseudomonas aeruginosa [9]) | MIC (Pseudomonas aeruginosa [10])
1 | CCn1cc(C(=O)O)c(=O)c2cc(F)c(N3CCN(C(C)=O)C(C)C3)c(F)c21 (stereo unspecified) | 0 mm | 0 mm | 0 mm | 0 mm | – | – | – | – | – | –
2 | O=C(O)CCCC(=O)N1CCN(c2cc3c(cc2F)c(=O)c(C(=O)O)cn3C2CC2)CC1 | 0 mm | 0 mm | 0 mm | 0 mm | – | – | – | – | – | –
3 | COc1c(N2CCNC(C)C2)c(F)cc2c(=O)c(C(=O)O)cn(C3CC3)c12 (stereo unspecified) | 23 mm | 21 mm | 31 mm | 29 mm | – | – | – | – | – | –
4 | O=C([O-])c1cn(C2CC2)c2cc(N3CCNCC3)c(F)cc2c1=O.[K+] | 26 mm | 24 mm | 38 mm | 30 mm | 1.56 µM | 6.25 µM | 20% | 6.25 µM | 32% | 1.56 µM
5 | C[C@H]1COc2c(C3(N)CC3)c(F)cc3c(=O)c(C(=O)O)cn1c23 | 20 mm | 17 mm | 30 mm | 25 mm | – | – | – | – | – | –
6 | COc1c(N2C[C@@H]3CCCN(C(C)=O)[C@@H]3C2)c(F)cc2c(=O)c(C(=O)O)cn(C3CC3)c12 | 0 mm | 0 mm | 0 mm | 0 mm | – | – | – | – | – | –
7 | COc1c(N2C[C@@H]3CCCN[C@@H]3C2)c(F)cc2c(=O)c(C(=O)O)cn(C3CC3)c12 | 14 mm | 10 mm | 31 mm | 24 mm | – | – | – | – | – | –
8 | O=C(O)CCC(=O)N1CCN(c2cc3c(cc2F)c(=O)c(C(=O)O)cn3C2CC2)CC1 | 0 mm | 0 mm | 0 mm | 0 mm | – | – | – | – | – | –
9 | NC[C@H]1O[C@H](O[C@H]2[C@H](O)[C@@H](O[C@H]3O[C@H](CO)[C@@H](O)[C@H](N)[C@H]3O)[C@H](N)C[C@@H]2N)[C@H](N)C[C@@H]1O | 17 mm | 13 mm | 20 mm | 18 mm | 0.78 µM (≈ 0.365 µg/mL) | 6.25 µM (≈ 2.92 µg/mL) | – | 1.56 µM (≈ 0.729 µg/mL) | – | 3.12 µM (≈ 1.46 µg/mL)
10 | O=CN1CCN(c2cc3c(cc2F)c(=O)c(C(=O)O)cn3C2CC2)CC1 | 9 mm | 20 mm | 21 mm | 18 mm | 3.12 µM (≈ 1.12 µg/mL) | 6.25 µM (≈ 2.25 µg/mL) | – | 6.25 µM (≈ 2.25 µg/mL) | – | 3.12 µM (≈ 1.12 µg/mL)
11 | O=C([O-])c1ccccc1C(=O)N1CCN(c2cc3c(cc2F)c(=O)c(C(=O)[O-])cn3C2CC2)CC1.[K+].[K+] | 13 mm | 11 mm | 31 mm | 23 mm | 3.12 µM | 12.5 µM | 53% | 6.25 µM | 58% | 3.12 µM
12 | CC1(C)S[C@@H]2[C@H](NC(=O)[C@H](C(=O)O)c3ccsc3)C(=O)N2[C@H]1C(=O)O | 0 mm | 0 mm | 0 mm | 0 mm | – | – | – | – | – | –
13 | COc1c(N2CCN(C(C)=O)C(C)C2)c(F)cc2c(=O)c(C(=O)O)cn(C3CC3)c12 (stereo unspecified) | 0 mm | 0 mm | 0 mm | 0 mm | – | – | – | – | – | –
14 | CC(=O)NC1(c2c(F)cc3c(=O)c(C(=O)O)cn4c3c2OC[C@@H]4C)CC1 | 0 mm | 0 mm | 0 mm | 0 mm | – | – | – | – | – | –
15 | CCn1cc(C(=O)O)c(=O)c2cc(F)c(N3CCN(C)CC3)cc21 | 14 mm | 12 mm | 19 mm | 18 mm | – | – | – | – | – | –
16 | CCCCN1CCN(c2cc3c(cc2F)c(=O)c(C(=O)O)cn3C2CC2)CC1 | 0 mm | 0 mm | 13 mm | 23 mm | – | – | – | – | – | –
17 | CCCCCCN1CCN(c2cc3c(cc2F)c(=O)c(C(=O)O)cn3C2CC2)CC1 | 0 mm | 0 mm | 0 mm | 0 mm | – | – | – | – | – | –
18 | O=C(O)CN1CCN(c2cc3c(cc2F)c(=O)c(C(=O)O)cn3C2CC2)CC1 | 0 mm | 0 mm | 0 mm | 0 mm | – | – | – | – | – | –
19 | COC(=O)CCCN1CCN(c2cc3c(cc2F)c(=O)c(C(=O)O)cn3C2CC2)CC1 | 9 mm | 6 mm | 17 mm | 16 mm | – | – | – | – | – | –
20 | O=C(O)c1cn(C2CC2)c2cc(N3CCN(Cc4ccccc4)CC3)c(F)cc2c1=O | 0 mm | 0 mm | 13 mm | 0 mm | – | – | – | – | – | –
21 | O=C(O)CCCN1CCN(c2cc3c(cc2F)c(=O)c(C(=O)O)cn3C2CC2)CC1 | 0 mm | 0 mm | 0 mm | 0 mm | – | – | – | – | – | –
22 | CCn1cc(C(=O)O)c(=O)c2cc(F)c(N3CCNC(C)C3)c(F)c21 (stereo unspecified) | 15 mm | 12 mm | 29 mm | 23 mm | – | – | – | – | – | –
23 | CC(=O)N1CCN(c2cc3c(cc2F)c(=O)c(C(=O)O)cn3C2CC2)CC1 | 13 mm | 0 mm | 0 mm | 10 mm | – | – | – | – | – | –
24 | COC(=O)CN1CCN(c2cc3c(cc2F)c(=O)c(C(=O)O)cn3C2CC2)CC1 | 0 mm | 0 mm | 0 mm | 0 mm | – | – | – | – | – | –

From ChEMBL document CHEMBL3763028, “Anionic fluoroquinolones as antibacterials against biofilm-producing Pseudomonas aeruginosa” (2016)
